In patent publication US20230265116A1, “DEGRADATION OF (EGFR) BY CONJUGATION OF EGFR INHIBITORS WITH E3 LIGASE LIGAND AND METHODS OF USE” (BEIGENE, LTD., priority 2020, published 2023):

Tests used:
Assay type in all cases: cell-based
[1] = molecular target: T1, EGFR L858R/T790M/C797S (BaF3-LTC cells) (Homo sapiens, UniProt P00533, C797S/L858R/T790M); assay: EGFR degradation HTRF assay, BaF3-LTC cells; details: BaF3-LTC cells; for DC50: EGFR degradation, IC50 (DC50) from curve fit, read-out: DC50(nM) BaF3-LTC
T1 construct: expressed in transfected cells; host or cells: BaF3
Method in brief: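 Cells treated 16 h at 37 °C, 5% CO2 in medium with 0.2% DMSO; top final concentration 10 uM, 5-fold dilution, 8 doses. Lysates read by HTRF (665/620 nm); degradation % versus DMSO high control, DC50 from four-parameter fit, Dmax as maximal degradation.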

[2] = molecular target: T2, EGFR L858R/C797S (BaF3 LC cells) (Homo sapiens, UniProt P00533, C797S/L858R); assay: EGFR degradation HTRF assay, BaF3 LC cells; details: BaF3 LC, 16h treatment; for DC50: read-out: BaF3 LC DC50
T2 construct: expressed in transfected cells; host or cells: BaF3

[3] = test system: EGFR Del19/C797S (H1975-clone #23); assay: EGFR degradation HTRF assay, H1975-clone #23 DC cells; details: 16h treatment; for H1975 #23 DC Dmax (%): maximum percentage of degradation; for DC50: H1975 #23 DC, read-out: H1975 #23 DC DC50
Method in brief: (§1)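 Lentiviral Del19/T790M/C797S (clone #28) or Del19/C797S (clone #23) EGFR expressed in H1975 with endogenous EGFR knocked out. Cells treated 16 h, 37 °C, 8 doses, 5-fold from 10 uM top, 0.2% DMSO; EGFR read by HTRF after lysis. Degradation % vs DMSO control; DC50, Dmax from four-parameter fit.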

[4] = test system: EGFR Del19/T790M/C797S (H1975-clone #28); assay: EGFR degradation HTRF assay, H1975-clone #28 DTC cells; details: H1975 # 28 DTC cells; for DC50: EGFR degradation, IC50 (DC50) from curve fit, read-out: DC50(nM) H1975 # 28 DTC; for Dmax (%) H1975 # 28 DTC: maximum percentage of inhibition (degradation)
Method in brief: as §1

T1 sequence (P00533 25-1210 T790M/C797S/L858R): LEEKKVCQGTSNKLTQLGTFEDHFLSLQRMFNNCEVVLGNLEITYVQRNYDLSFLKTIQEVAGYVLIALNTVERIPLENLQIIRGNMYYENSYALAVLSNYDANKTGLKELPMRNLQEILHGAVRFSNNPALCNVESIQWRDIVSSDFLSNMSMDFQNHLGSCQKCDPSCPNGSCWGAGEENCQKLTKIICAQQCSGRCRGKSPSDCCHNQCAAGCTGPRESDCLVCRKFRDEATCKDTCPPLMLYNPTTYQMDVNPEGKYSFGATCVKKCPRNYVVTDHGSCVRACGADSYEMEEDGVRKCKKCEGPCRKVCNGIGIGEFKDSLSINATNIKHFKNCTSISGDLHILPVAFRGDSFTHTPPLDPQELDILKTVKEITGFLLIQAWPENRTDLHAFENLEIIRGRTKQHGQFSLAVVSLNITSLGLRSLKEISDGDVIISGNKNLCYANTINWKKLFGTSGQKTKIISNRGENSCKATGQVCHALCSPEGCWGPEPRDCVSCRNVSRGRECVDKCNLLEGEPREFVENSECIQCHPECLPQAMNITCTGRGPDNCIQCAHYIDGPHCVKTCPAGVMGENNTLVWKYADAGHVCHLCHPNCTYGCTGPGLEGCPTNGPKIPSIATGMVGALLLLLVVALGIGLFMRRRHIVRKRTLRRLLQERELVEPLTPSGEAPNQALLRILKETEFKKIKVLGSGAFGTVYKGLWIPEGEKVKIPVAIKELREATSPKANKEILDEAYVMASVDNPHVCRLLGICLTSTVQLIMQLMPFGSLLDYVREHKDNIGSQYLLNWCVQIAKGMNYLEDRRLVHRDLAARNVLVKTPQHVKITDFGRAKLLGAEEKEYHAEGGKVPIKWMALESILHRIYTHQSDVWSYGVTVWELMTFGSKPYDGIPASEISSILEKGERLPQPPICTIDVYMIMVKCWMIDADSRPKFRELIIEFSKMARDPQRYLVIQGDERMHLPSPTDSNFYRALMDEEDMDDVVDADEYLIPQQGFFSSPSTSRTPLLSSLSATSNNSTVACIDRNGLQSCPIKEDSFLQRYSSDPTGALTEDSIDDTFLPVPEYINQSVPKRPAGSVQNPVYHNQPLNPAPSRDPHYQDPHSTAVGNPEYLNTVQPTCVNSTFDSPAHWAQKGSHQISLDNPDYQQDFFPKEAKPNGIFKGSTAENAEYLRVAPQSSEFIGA
T2 sequence (P00533 25-1210 C797S/L858R): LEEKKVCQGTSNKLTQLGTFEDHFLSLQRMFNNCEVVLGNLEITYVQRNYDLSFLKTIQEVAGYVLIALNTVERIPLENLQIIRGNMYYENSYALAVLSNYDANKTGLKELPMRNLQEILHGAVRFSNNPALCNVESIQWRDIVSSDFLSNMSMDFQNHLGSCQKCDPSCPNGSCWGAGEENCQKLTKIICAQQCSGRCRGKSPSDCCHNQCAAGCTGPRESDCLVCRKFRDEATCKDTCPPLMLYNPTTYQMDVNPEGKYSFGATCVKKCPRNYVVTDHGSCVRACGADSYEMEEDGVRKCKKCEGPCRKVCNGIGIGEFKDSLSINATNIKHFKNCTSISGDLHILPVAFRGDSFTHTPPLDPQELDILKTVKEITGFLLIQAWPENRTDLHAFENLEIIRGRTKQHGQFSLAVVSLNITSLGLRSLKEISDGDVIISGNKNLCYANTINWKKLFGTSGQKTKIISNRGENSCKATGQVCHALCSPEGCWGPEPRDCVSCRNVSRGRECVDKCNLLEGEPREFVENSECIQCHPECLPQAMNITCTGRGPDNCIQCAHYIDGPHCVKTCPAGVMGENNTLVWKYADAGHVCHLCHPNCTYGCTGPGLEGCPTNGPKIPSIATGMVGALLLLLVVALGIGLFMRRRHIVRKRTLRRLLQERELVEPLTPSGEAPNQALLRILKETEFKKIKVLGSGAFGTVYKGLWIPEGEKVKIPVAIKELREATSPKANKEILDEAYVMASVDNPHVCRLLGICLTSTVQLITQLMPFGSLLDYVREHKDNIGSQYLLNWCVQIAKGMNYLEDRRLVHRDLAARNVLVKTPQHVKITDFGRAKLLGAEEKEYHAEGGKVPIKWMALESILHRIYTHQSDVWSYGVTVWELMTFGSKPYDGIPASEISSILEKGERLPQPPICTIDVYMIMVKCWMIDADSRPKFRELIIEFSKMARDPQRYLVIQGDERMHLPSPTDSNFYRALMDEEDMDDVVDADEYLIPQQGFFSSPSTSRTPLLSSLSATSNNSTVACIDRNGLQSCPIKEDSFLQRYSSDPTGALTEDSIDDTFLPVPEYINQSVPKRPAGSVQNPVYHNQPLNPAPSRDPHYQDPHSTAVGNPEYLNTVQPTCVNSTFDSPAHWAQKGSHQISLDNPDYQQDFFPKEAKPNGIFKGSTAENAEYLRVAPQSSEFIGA

DC50 [1]	DC50 [2]	DC50 [3]	DC50 [4]	Dmax ([1]; maximum percentage of inhibition (degradation), read-out: Dmax (%) BaF3-LTC)	Dmax ([2]; maximum percentage of degradation, read-out: BaF3 LC Dmax (%))	SMILES	H1975 #23 DC Dmax (%) [3]	Dmax (%) H1975 # 28 DTC [4]
12.1 nM	15.8 nM	3.59 nM	2.8 nM	–	–	CCc1cc(Nc2ncc(Br)c(Nc3ccc4nc(C)c(F)cc4c3P(C)(C)=O)n2)c(OC)cc1N1CCC(N2CCN(C(=O)[C@H]3CN(c4cc(F)c([C@H]5CCC(=O)NC5=O)c(F)c4)CC3(C)C)CC2)CC1 [Example 576, (R)-3-(4-((R)-4-(4-(1-(4-((5-bromo-4-((5-(dimethylphosphoryl)-3-fluoro-2-methylquinolin-6-yl)amino)pyrimidin-2-yl)amino)-2-ethyl-5-methoxyphenyl)piperidin-4-yl)piperazine-1-carbonyl)-3,3-dimethylpyrrolidin-1-yl)-2,6-difluorophenyl)piperidine-2,6-dione]	77.19%	81.93%
8.4 nM	53.8 nM	7.94 nM	1.08 nM	–	–	CCOc1cc(N2CCC(N3CCN(C(=O)[C@@H]4CCN(c5cc(F)c([C@H]6CCC(=O)NC6=O)c(F)c5)C4)CC3)CC2)c(CC)cc1Nc1ncc(Br)c(Nc2ccc3nc(C)c(F)cc3c2P(C)(C)=O)n1 [Example 577, (R)-3-(4-((R)-3-(4-(1-(4-((5-bromo-4-((5-(dimethylphosphoryl)-3-fluoro-2-methylquinolin-6-yl)amino)pyrimidin-2-yl)amino)-5-ethoxy-2-ethylphenyl)piperidin-4-yl)piperazine-1-carbonyl)pyrrolidin-1-yl)-2,6-difluorophenyl)piperidine-2,6-dione]	64.13%	87.91%
2.72 nM	4.9 nM	2.7 nM	0.634 nM	–	–	CCc1ccc2c(P(C)(C)=O)c(Nc3nc(Nc4cc(C)c(N5CCC(N6CCN(CCc7cccc8c7n(C)c(=O)n8C7CCC(=O)NC7=O)CC6)CC5)cc4OC4CC4)ncc3Br)ccc2n1 (centres unmarked) [Example 584, 3-(4-(2-(4-(1-(4-((5-bromo-4-((5-(dimethylphosphoryl)-2-ethylquinolin-6-yl)amino)pyrimidin-2-yl)amino)-5-cyclopropoxy-2-methylphenyl)piperidin-4-yl)piperazin-1-yl)ethyl)-3-methyl-2-oxo-2,3-dihydro-1H-benzo[d]imidazol-1-yl)piperidine-2,6-dione]	70.66%	79.5%
2.19 nM	14.6 nM	6.14 nM	0.765 nM	89.2%	87.8%	CCc1cc(Nc2ncc(Br)c(Nc3ccc4nc(NC(=O)C5CC5)ccc4c3P(C)(C)=O)n2)c(OC)cc1N1CCC(N2CCN(C(=O)[C@@H]3CCN(c4cc(F)c([C@H]5CCC(=O)NC5=O)c(F)c4)C3)CC2)CC1 [Example 587, N-(6-((5-bromo-2-((4-(4-(4-((R)-1-(4-((R)-2,6-dioxopiperidin-3-yl)-3,5-difluorophenyl)pyrrolidine-3-carbonyl)piperazin-1-yl)piperidin-1-yl)-5-ethyl-2-methoxyphenyl)amino)pyrimidin-4-yl)amino)-5-(dimethylphosphoryl)quinolin-2-yl)cyclopropanecarboxamide]	87.43%	87.02%
4.34 nM	20.3 nM	2.2 nM	0.844 nM	–	–	CCc1ncc2c(P(C)(C)=O)c(Nc3nc(Nc4cc(CC)c(N5CCC(N6CCN(CCc7cc(F)c([C@H]8CCC(=O)NC8=O)c(F)c7)CC6)CC5)cc4OC)ncc3Br)ccc2n1 [Example 589, (R)-3-(4-(2-(4-(1-(4-((5-bromo-4-((5-(dimethylphosphoryl)-2-ethylquinazolin-6-yl)amino)pyrimidin-2-yl)amino)-2-ethyl-5-methoxyphenyl)piperidin-4-yl)piperazin-1-yl)ethyl)-2,6-difluorophenyl)piperidine-2,6-dione]	84.51%	86.23%
3.86 nM	3.97 nM	1.45 nM	2.48 nM	–	–	CCOc1cc(N2CCC(N3CCN(CCc4cccc5c4n(CC)c(=O)n5C4CCC(=O)NC4=O)CC3)CC2)c(CC)cc1Nc1ncc(Br)c(Nc2cc(F)c3nc(CC)ccc3c2P(C)(C)=O)n1 (centres unmarked) [Example 643, 3-(4-(2-(4-(1-(4-((5-bromo-4-((5-(dimethylphosphoryl)-2-ethyl-8-fluoroquinolin-6-yl)amino)pyrimidin-2-yl)amino)-5-ethoxy-2-ethylphenyl)piperidin-4-yl)piperazin-1-yl)ethyl)-3-ethyl-2-oxo-2,3-dihydro-1H-benzo[d]imidazol-1-yl)piperidine-2,6-dione]	73.67%	65.15%
6.34 nM	2.23 nM	1.76 nM	1 nM	–	–	CCOc1cc(N2CCC(N3CCN(CCc4cccc5c4n(C)c(=O)n5C4CCC(=O)NC4=O)CC3)CC2)c(CC)cc1Nc1ncc(Br)c(Nc2ccc3nc(CC)ccc3c2P(C)(C)=O)n1 (centres unmarked) [Example 752, 3-(4-(2-(4-(1-(4-((5-bromo-4-((5-(dimethylphosphoryl)-2-ethylquinolin-6-yl)amino)pyrimidin-2-yl)amino)-5-ethoxy-2-ethylphenyl)piperidin-4-yl)piperazin-1-yl)ethyl)-3-methyl-2-oxo-2,3-dihydro-1H-benzo[d]imidazol-1-yl)piperidine-2,6-dione]	78.99%	77.12%
83.7 nM	20.1 nM	2.43 nM	6.28 nM	–	–	CCc1cc(Nc2ncc(Br)c(Nc3ccc4c(=O)n(CC)ncc4c3P(C)(C)=O)n2)c(OC)cc1N1CCC(N2CCN(CCc3cc(F)c([C@H]4CCC(=O)NC4=O)c(F)c3)CC2)CC1 [Example 753, (R)-3-(4-(2-(4-(1-(4-((5-bromo-4-((5-(dimethylphosphoryl)-2-ethyl-1-oxo-1,2-dihydrophthalazin-6-yl)amino)pyrimidin-2-yl)amino)-2-ethyl-5-methoxyphenyl)piperidin-4-yl)piperazin-1-yl)ethyl)-2,6-difluorophenyl)piperidine-2,6-dione]	78.45%	87.49%
13.4 nM	36.1 nM	5.6 nM	3.22 nM	–	–	CCc1ccc2c(P(C)(C)=O)c(Nc3nc(Nc4cc(CC)c(N5CCC(N6CCN(C(=O)[C@H]7CN(c8cc(F)c([C@H]9CCC(=O)NC9=O)c(F)c8)CC7(C)C)CC6)CC5)cc4OC)ncc3Br)ccc2n1 [Example 754, (R)-3-(4-((R)-4-(4-(1-(4-((5-bromo-4-((5-(dimethylphosphoryl)-2-ethylquinolin-6-yl)amino)pyrimidin-2-yl)amino)-2-ethyl-5-methoxyphenyl)piperidin-4-yl)piperazine-1-carbonyl)-3,3-dimethylpyrrolidin-1-yl)-2,6-difluorophenyl)piperidine-2,6-dione]	71.73%	86.62%
